Measured values as given in ChEMBL document CHEMBL1201862, “PubChem BioAssay data set” (2004).
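Results reflect a 48-hour exposure of cells in 96-well plates to compound at five concentrations. GI50 = concentration required for 50% inhibition of growth.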 Active and inactive are the calls of the source. Rule as the data show it: active = GI50 up to about 1.1 µM and inactive = higher.

Assays:
Experiment in all cases: growth of human tumour cells (NCI), 48 h
HL-60 = system: HL-60
OVCAR-5 = system: OVCAR-5
HCC 2998 = system: HCC 2998
COLO 205 = system: COLO 205
OVCAR-3 = system: OVCAR-3
NCI-H522 = system: NCI-H522
SNB-19 = system: SNB-19
MDA-MB-435 = system: MDA-MB-435
CAKI-1 = system: CAKI-1
MCF7 = system: MCF7
NCI-H226 = system: NCI-H226
NCI-H460 = system: NCI-H460
MDA-N = system: MDA-N
IGROV-1 = system: IGROV-1
U-251 = system: U-251
SF-295 = system: SF-295
HCT-15 = system: HCT-15
SNB-75 = system: SNB-75
RXF 393 = system: RXF 393
MDA-MB-231 = system: MDA-MB-231

Row | SMILES | GI50 (HL-60) | GI50 (OVCAR-5) | GI50 (HCC 2998) | GI50 (COLO 205) | GI50 (OVCAR-3) | GI50 (NCI-H522) | GI50 (SNB-19) | GI50 (MDA-MB-435) | GI50 (CAKI-1) | GI50 (MCF7) | GI50 (NCI-H226) | GI50 (NCI-H460) | GI50 (MDA-N) | GI50 (IGROV-1) | GI50 (U-251) | GI50 (SF-295) | GI50 (HCT-15) | GI50 (SNB-75) | GI50 (RXF 393) | GI50 (MDA-MB-231)
1 | O=C1N=C(Nc2ccccc2Cl)N/C1=C\c1ccc(Cl)cc1Cl | 0.122 µM (active) | > 100 µM (inactive) | 53.5 µM (inactive) | 47.8 µM (inactive) | 66.1 µM (inactive) | 11.9 µM (inactive) | > 100 µM (inactive) | 5.96 µM (inactive) | > 100 µM (inactive) | 31.4 µM (inactive) | 25.1 µM (inactive) | 49.2 µM (inactive) | 8.11 µM (inactive) | 79.4 µM (inactive) | 33.9 µM (inactive) | 60.8 µM (inactive) | 39.5 µM | 29.9 µM (inactive) | 15.5 µM (inactive) | –
2 | CN(C)CCn1c(=O)c2ccc3c4c(nn3CCN(C)C)c3cc(O)ccc3n(c1=O)c24 | 0.0419 µM (active) | 0.0723 µM (active) | < 0.0493 µM (active) | 0.0706 µM (active) | 0.114 µM (active) | < 0.01 µM (active) | – | 0.134 µM (active) | 0.0501 µM (active) | – | 0.126 µM (active) | < 0.0411 µM (active) | 0.181 µM (active) | – | < 0.0348 µM (active) | 0.0136 µM (active) | 0.147 µM | 0.059 µM (active) | 0.281 µM (active) | 0.0536 µM (active)
3 | Cc1ccc(N/C(SCc2ccccc2)=C(\C(Cl)=C(Cl)Cl)[N+](=O)[O-])c(C)c1 | – | 19.6 µM (inactive) | 45.6 µM (inactive) | 17.8 µM (inactive) | 8.26 µM (inactive) | – | 30.4 µM (inactive) | 7.21 µM (inactive) | 18.6 µM (inactive) | 35.3 µM (inactive) | 45.2 µM (inactive) | 41.7 µM (inactive) | 22.2 µM (inactive) | – | 15.6 µM (inactive) | 23.7 µM (inactive) | 17.7 µM | 29.2 µM (inactive) | – | 14.6 µM (inactive)
4 | O=S(=O)(c1ccc(Br)cc1)n1c2ccc(Br)cc2c2nc3ccccc3nc21 | – | > 100 µM (inactive) | > 100 µM (inactive) | > 100 µM (inactive) | > 100 µM (inactive) | > 100 µM (inactive) | 49.3 µM (inactive) | > 100 µM (inactive) | > 100 µM (inactive) | – | > 100 µM (inactive) | > 100 µM (inactive) | > 100 µM (inactive) | 78.7 µM (inactive) | 23.2 µM (inactive) | 68.1 µM (inactive) | > 100 µM | 25.9 µM (inactive) | 20.1 µM (inactive) | 50.5 µM (inactive)
5 | C#CCOCn1cc(C)c(=O)[nH]c1=O | > 100 µM (inactive) | > 100 µM (inactive) | > 100 µM (inactive) | > 100 µM (inactive) | – | – | > 100 µM (inactive) | – | > 100 µM (inactive) | > 100 µM (inactive) | > 100 µM (inactive) | > 100 µM (inactive) | > 100 µM (inactive) | > 100 µM (inactive) | > 100 µM (inactive) | > 100 µM (inactive) | > 100 µM | > 100 µM (inactive) | – | > 100 µM (inactive)
6 | N#Cc1nc(/C=C/c2cccs2)oc1N | 12.6 µM (inactive) | > 100 µM (inactive) | – | – | – | – | > 100 µM (inactive) | > 100 µM (inactive) | 65.3 µM (inactive) | 99.1 µM (inactive) | – | – | > 100 µM (inactive) | 65.9 µM (inactive) | 95.3 µM (inactive) | – | 94.4 µM | > 100 µM (inactive) | > 100 µM (inactive) | > 100 µM (inactive)
7 | CCCCCCCCCCCCC(O)C1CCC(C(O)CCCCC(O)CCCCCC2CC(CC(C)=O)C(=O)O2)O1 (configuration not stated) | – | 8.75 µM (inactive) | 8.18 µM (inactive) | 3.19 µM (inactive) | 2.09 µM (inactive) | 4.15 µM (inactive) | 2.33 µM (inactive) | – | 8.87 µM (inactive) | 1.01 µM (active) | 1.82 µM (inactive) | 3.77 µM (inactive) | 1.6 µM (inactive) | 5.78 µM (inactive) | 3.11 µM (inactive) | 0.133 µM (active) | 3.35 µM | 3.72 µM (inactive) | 4.29 µM (inactive) | 2.54 µM (inactive)
